Experimental data as given in PMC10333884, “Large‐scale phosphomimetic screening identifies phospho‐modulated motif‐based protein interactions” (Molecular Systems Biology, 2023).
One block for each compound: values may come before it. Non-standard residues stand in square brackets, D forms with d. Residues, ends and D or L forms follow the SMILES beside them. pT = C[C@@H](OP(=O)(O)O)[C@H](N)C(=O)O; pS = N[C@@H](COP(=O)(O)O)C(=O)O

Experiments:
Format in all cases: binding
[1] = biological target: T1, SNX27 PDZ (Homo sapiens, UniProt Q96L92); experiment: FP displacement assay, SNX27 PDZ (MBP-tagged); details: for Kd: MBP-tagged domain, probe FITC-SYT16 5 nM, 50 mM sodium phosphate pH 7.4, room temperature, at least three technical replicates, read-out: KD values ± SEM
T1 construct: SNX27_PDZ__Q96L92_40_141; made in house; host or cells: Escherichia coli BL21-Gold(DE3)
Experimental: For FP, ITC and crystallisation, the tag was removed with the appropriate protease either on beads (0.1 mg/ml thrombin (Cytiva) in PBS, 1 mM dithiothreitol (DTT)) or by dialysis in cleavage buffer (Human Rhinovirus (HRV) 3C protease: 50 mM Tris–HCl pH 7.4, 150 mM NaCl, 1 mM β‐mercaptoethanol), both procedures were overnight. In case of HRV protease cleavage, the tag was separated from the target protein domain by reverse ion metal affinity chromatography using Ni^2+ beads for purification, whereas thrombin was removed using a benzamidine column (Cytiva). Affinity measurements for SNX27 PDZ were performed on the MBP‐tagged construct, as well as PIN1 WW domain on the GST‐tagged construct. For FP and ITC, proteins were dialysed in 50 mM sodium phosphate buffer pH 7.4, 1 mM DTT. For crystallisation of the NTD of clathrin, the protein was further purified by a S200 Sepharose column (Cytiva) using 20 mM Tris–HCl pH 7.4, 150 mM NaCl and 1 mM DTT.
(§1) FP experiments were performed as described previously (Kliche et al, [2021]). Shortly, in order to monitor the binding event, FITC‐labelled peptides were used (excitation 495 nm, emission: 535 nm) and the FP signal was recorded in mP on a SpectraMax iD5 Multi‐Mode Microplate Reader (Molecular Devices) by measuring the emitted light in two angels. The measurements were performed at room temperature and prepared in nonbinding black half area 96‐well microplates (Corning®; 50 μl/well). For measuring direct binding, that is saturation curves, a 1:1 dilution series of protein domain (25 μl/well) was generated in 50 mM sodium phosphate buffer pH 7.4 and the measurement performed with 5 nM FITC‐labelled peptide (25 μl/well). The buffer‐corrected values were subsequently plotted with PRISM and fitted to the quadratic equation (Gianni et al, [2005]).
(§2) The 1:1 dilution series in this experiment was performed with the unlabelled peptide in 50 mM sodium phosphate buffer pH 7.4, so that each well‐contained unlabelled peptide (25 μl) at a certain concentration and pre‐formed complex (25 μl). The KD values of this indirectly monitored binding event were calculated as described previously (Nikolovska‐Coleska et al, [2004]). All measurements were at least in technical triplicates as well as biological duplicates when indicated. An amplitude shift between repeat measurements in the displacement experiments was occasionally observed due to variations in the protein preparations. If that was the case, the “active” protein concentration was back‐calculated according to the quadratic equation from the saturation curves performed in parallel. By comparing the active protein concentrations in the complex between different protein preparations, the amplitude was normalised.

[2] = biological target: T2, GABARAPL2 (Homo sapiens, UniProt P60520); experiment: FP displacement assay, GABARAPL2; details: read-out: KD values ± SEM
T2 construct: GABARAPL2_ATG8__P60520_2_115; GST (cleaved yes); made in house; host or cells: Escherichia coli BL21-Gold(DE3)
T2 sequence (P60520 2-115): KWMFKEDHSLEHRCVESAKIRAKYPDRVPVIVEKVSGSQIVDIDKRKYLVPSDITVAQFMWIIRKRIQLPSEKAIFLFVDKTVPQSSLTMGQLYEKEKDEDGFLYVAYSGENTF
Experimental: as §1, §2

[3] = biological target: T3, MAP1LC3A (Homo sapiens, UniProt Q9H492); experiment: FP displacement assay, MAP1LC3A; details: for IC50: Fig 4B, MAP1LC3A ATG8, FP displacement, technical triplicates, read-out: IC50 values of displacement curves, with SEM; for Kd: read-out: KD values ± SEM
T3 construct: GST (cleaved yes); made in house; host or cells: Escherichia coli BL21-Gold(DE3)

[4] = biological target: T4, MAP1LC3B (Homo sapiens, UniProt Q9GZQ8); experiment: FP displacement assay, MAP1LC3B; details: read-out: KD values ± SEM
T4 construct: GST (cleaved yes); made in house; host or cells: Escherichia coli BL21-Gold(DE3)
Experimental: as §1, §2

[5] = biological target: T5, GGA1 VHS (Homo sapiens, UniProt Q9UJY5); experiment: FP displacement assay, GGA1 VHS
T5 construct: GGA1_VHS__Q9UJY5_1_157; GST (cleaved yes); made in house; host or cells: Escherichia coli BL21-Gold(DE3)
T5 sequence (Q9UJY5 1-157): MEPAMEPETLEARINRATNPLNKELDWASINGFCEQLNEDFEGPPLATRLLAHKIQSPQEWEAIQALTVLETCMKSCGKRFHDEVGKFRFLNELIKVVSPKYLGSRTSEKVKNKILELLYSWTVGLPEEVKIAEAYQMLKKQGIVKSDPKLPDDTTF
Experimental: as §1, §2

[6] = biological target: T5, GGA1 VHS; experiment: ITC, GGA1 VHS; set-up: Ka: unit not given beside the values; details: for Kd: ITC (iTC200), 50 mM sodium phosphate pH 7.4, 1 mM DTT, average of the runs, technical duplicates
[7] = FP displacement, probe FITC-IGF2R 5 nM, 50 mM sodium phosphate pH 7.4, room temperature, at least three technical replicates, read-out: KD values ± SEM
[8] = ITC single run: date 200220, injection 1
[9] = ITC single run: date 200220, injection 2

Structure (SMILES): CC(=O)N[C@@H](Cc1ccc(O)cc1)C(=O)N[C@@H](CCCCN)C(=O)N[C@@H](CCCCN)C(=O)N[C@@H](CCC(N)=O)C(=O)N[C@@H](CC(C)C)C(=O)N[C@@H](CCCCN)C(=O)N[C@@H](CCCNC(=N)N)C(=O)N[C@@H](Cc1ccccc1)C(=O)N[C@@H](COP(=O)(O)O)C(=O)N[C@H](C(=O)N[C@@H](CCC(=O)O)C(=O)N[C@@H](CCC(=O)O)C(=O)N[C@@H](Cc1ccccc1)C(=O)N[C@H](C(=O)N[C@@H](CC(C)C)C(=O)N[C@@H](CC(C)C)C(=O)O)C(C)C)[C@@H](C)O [ATG4C444–458 pS]
- Kd [2]: 0.1 ± 0.2 µM
- IC50 [3]: 5.5 ± 0.7 µM
- Kd [3]: 1.3 ± 0.1 µM
- Kd [4]: 1.9 ± 0.3 µM

Structure (SMILES): CC(=O)N[C@@H](Cc1ccc(O)cc1)C(=O)N[C@@H](CCCCN)C(=O)N[C@@H](CCCCN)C(=O)N[C@@H](CCC(N)=O)C(=O)N[C@@H](CC(C)C)C(=O)N[C@@H](CCCCN)C(=O)N[C@@H](CCCNC(=N)N)C(=O)N[C@@H](Cc1ccccc1)C(=O)N[C@@H](CO)C(=O)N[C@H](C(=O)N[C@@H](CCC(=O)O)C(=O)N[C@@H](CCC(=O)O)C(=O)N[C@@H](Cc1ccccc1)C(=O)N[C@H](C(=O)N[C@@H](CC(C)C)C(=O)N[C@@H](CC(C)C)C(=O)O)C(C)C)[C@@H](C)O [ATG4C444–458 wt]
- Kd [2]: 0.8 ± 0.4 µM
- IC50 [3]: 17 ± 1 µM
- Kd [3]: 5.2 ± 0.2 µM
- Kd [4]: 7.1 ± 0.6 µM

Structure (SMILES): CC[C@H](C)[C@H](NC(=O)[C@H](CC(=O)O)NC(=O)[C@H](CC(=O)O)NC(=O)[C@H](CO)NC(=O)[C@@H](NC(=O)[C@@H]1CCCN1C(=O)[C@H](CO)NC(=O)[C@H](CCCCN)NC(=O)[C@H](Cc1ccc(O)cc1)NC(C)=O)[C@@H](C)O)C(=O)N[C@@H](COP(=O)(O)O)C(=O)N[C@@H](CC(C)C)C(=O)N[C@@H](CC(C)C)C(=O)N[C@@H](Cc1c[nH]cn1)C(=O)N[C@@H](CCC(=O)O)C(=O)N[C@@H](CO)C(=O)N[C@@H](CCC(N)=O)C(=O)N[C@@H](CO)C(N)=O [RNF11_6–21 pS] (Ac-YKSPTSDDI[pS]LLHESQS-NH2)
- Kd [5, 7]: 31 ± 3 µM
- Kd [6]: 27 µM
- Ka [6, 8]: 35100
- Ka [6, 9]: 38900

Structure (SMILES): CC(=O)N[C@@H](CC(=O)O)C(=O)N[C@@H](CC(C)C)C(=O)N[C@@H](CC(C)C)C(=O)N[C@H](C(=O)N[C@@H](CO)C(=O)N1CCC[C@H]1C(=O)N[C@@H](CC(=O)O)C(=O)N[C@H](C(=O)NCC(=O)N[C@@H](CC(C)C)C(=O)N[C@@H](CC(C)C)C(=O)N[C@@H](CCCCN)C(=O)N[C@@H](CC(C)C)C(=O)N[C@@H](C)C(=O)N[C@@H](CO)C(=O)N[C@@H](Cc1ccc(O)cc1)C(N)=O)C(C)C)[C@@H](C)OP(=O)(O)O [JUN59–73 pS] (Ac-DLL[pT]SPDVGLLKLASY-NH2)
- Kd [5]: 1900 µM

Structure (SMILES): CC(=O)N[C@@H](CC(=O)O)C(=O)N[C@@H](CC(C)C)C(=O)N[C@@H](CC(C)C)C(=O)N[C@H](C(=O)N[C@@H](CO)C(=O)N1CCC[C@H]1C(=O)N[C@@H](CC(=O)O)C(=O)N[C@H](C(=O)NCC(=O)N[C@@H](CC(C)C)C(=O)N[C@@H](CC(C)C)C(=O)N[C@@H](CCCCN)C(=O)N[C@@H](CC(C)C)C(=O)N[C@@H](C)C(=O)N[C@@H](CO)C(=O)N[C@@H](Cc1ccc(O)cc1)C(N)=O)C(C)C)[C@@H](C)O [JUN59–73 wt] (Ac-DLLTSPDVGLLKLASY-NH2)
- Kd [5]: 470 ± 50 µM

Further lines, results first:

- IC50 ([1]; Fig 4B, SNX27 PDZ, technical triplicates, read-out: IC50 values of displacement curves, with SEM): 427 ± 39 µM
- Kd [1]: 96 ± 5 µM
Structure (SMILES): CSCC[C@H](NC(=O)CNC(C)=O)C(=O)N[C@H](C(=O)N[C@@H](CO)C(=O)N[C@@H](COP(=O)(O)O)C(=O)N[C@H](C(=O)N[C@@H](CO)C(=O)N[C@@H](Cc1ccccc1)C(=O)N[C@@H](CC(N)=O)C(=O)NCC(=O)NCC(=O)N[C@@H](Cc1ccc(O)cc1)C(N)=O)[C@@H](C)O)C(C)C [DAXX606–616 pS] (Ac-GMVS[pS]TSFNGGY-NH2)

- Kd [1]: 300 ± 125 µM
Structure (SMILES): CSCC[C@H](NC(=O)CNC(C)=O)C(=O)N[C@H](C(=O)N[C@@H](CO)C(=O)N[C@@H](CO)C(=O)N[C@H](C(=O)N[C@@H](CO)C(=O)N[C@@H](Cc1ccccc1)C(=O)N[C@@H](CC(N)=O)C(=O)NCC(=O)NCC(=O)N[C@@H](Cc1ccc(O)cc1)C(N)=O)[C@@H](C)O)C(C)C [DAXX606–616 wt] (Ac-GMVSSTSFNGGY-NH2)

- Kd [5, 7]: 420 ± 50 µM
- Kd [6]: 919 µM
- Ka [6, 8]: 2030
- Ka [6, 9]: 744
Structure (SMILES): CC[C@H](C)[C@H](NC(=O)[C@H](CC(=O)O)NC(=O)[C@H](CC(=O)O)NC(=O)[C@H](CO)NC(=O)[C@@H](NC(=O)[C@@H]1CCCN1C(=O)[C@H](CO)NC(=O)[C@H](CCCCN)NC(=O)[C@H](Cc1ccc(O)cc1)NC(C)=O)[C@@H](C)O)C(=O)N[C@@H](CO)C(=O)N[C@@H](CC(C)C)C(=O)N[C@@H](CC(C)C)C(=O)N[C@@H](Cc1c[nH]cn1)C(=O)N[C@@H](CCC(=O)O)C(=O)N[C@@H](CO)C(=O)N[C@@H](CCC(N)=O)C(=O)N[C@@H](CO)C(N)=O [RNF11_6–21 wt] (Ac-YKSPTSDDISLLHESQS-NH2)

- Kd [1]: 111 ± 17 µM
Structure (SMILES): CC(=O)N[C@@H](CC(N)=O)C(=O)N[C@@H](CC(C)C)C(=O)N[C@@H](CC(C)C)C(=O)N[C@@H](CC(C)C)C(=O)N[C@@H](CCC(=O)O)C(=O)N[C@@H](CCCNC(=N)N)C(=O)N[C@@H](CC(=O)O)C(=O)N[C@H](C(=O)N[C@@H](CO)C(=O)N[C@@H](Cc1ccccc1)C(=O)N[C@H](C(=O)N[C@H](C(=O)N[C@@H](C)C(=O)N1CCC[C@H]1C(=O)N[C@@H](CC(=O)O)C(=O)N[C@@H](Cc1ccc(O)cc1)C(N)=O)C(C)C)[C@@H](C)O)[C@@H](C)O [CDC25C30–44 wt] (Ac-NLLLERDTSFTVAPDY-NH2)

- Kd [1]: 395 ± 63 µM
Structure (SMILES): CC(=O)N[C@@H](CC(N)=O)C(=O)N[C@@H](CC(C)C)C(=O)N[C@@H](CC(C)C)C(=O)N[C@@H](CC(C)C)C(=O)N[C@@H](CCC(=O)O)C(=O)N[C@@H](CCCNC(=N)N)C(=O)N[C@@H](CC(=O)O)C(=O)N[C@H](C(=O)N[C@@H](COP(=O)(O)O)C(=O)N[C@@H](Cc1ccccc1)C(=O)N[C@H](C(=O)N[C@H](C(=O)N[C@@H](C)C(=O)N1CCC[C@H]1C(=O)N[C@@H](CC(=O)O)C(=O)N[C@@H](Cc1ccc(O)cc1)C(N)=O)C(C)C)[C@@H](C)O)[C@@H](C)O [CDC25C30–44 pS] (Ac-NLLLERDT[pS]FTVAPDY-NH2)

- Kd [5, 7]: 96 ± 8 µM
Structure (SMILES): CC(=O)N[C@@H](CCC(=O)O)C(=O)N[C@H](C(=O)N[C@@H](Cc1ccc(O)cc1)C(=O)N[C@@H](Cc1ccc(O)cc1)C(=O)N[C@@H](CC(C)C)C(=O)N[C@@H](CO)C(=O)N[C@@H](CC(=O)O)C(=O)N[C@@H](CO)C(=O)N1CCC[C@H]1C(=O)N[C@@H](CC(C)C)C(=O)N[C@@H](CC(C)C)C(=O)NCC(=O)N1CCC[C@H]1C(=O)N1CCC[C@H]1C(=O)N[C@H](C(=O)NCC(N)=O)C(C)C)[C@@H](C)O [GTSE1_145–160 wt] (Ac-ETYYLSDSPLLGPPVG-NH2)
